Series [1] deals with CCR5. In words: Selectivity index, ratio of CC50 for human TZM-bl cells to EC50 for CCR5 in human TZM-bl cells infected with CCR5-tropic HIV-1 Bal assessed as inhibition of viral entry. The note with it: read-out: Ratio CC50/EC50. It is filed as toxicity, cell-based.
Series [2] can be described thus: Binding affinity to HIV1 integrase by surface plasma resonance method. Details: species or system Human immunodeficiency virus.
The test system of series [3] is TZM. In words: Cytotoxicity against human TZM-bl cells after 3 days by XTT assay. It is filed as cell-based. The note with it: 72 h. On the technique in general: Tetrazolium dyes change colour on reduction, which living cells bring about.

SMILES strings stand for the structures.

This passage reports selectivity ratio, Kd and Activity results from ChEMBL document CHEMBL3994566 (Medchemcomm, 2016).

The Kd is the free concentration of one partner at which half of the binding sites on the other are occupied at equilibrium, for simple one-to-one binding.

In the case of `Cc1ccc(C(=O)Nc2ccc(CCC(=O)CCc3ccc(O)c(O)c3)cc2)cc1`, in series [1], the selectivity ratio stood at 5.

`Cc1nnc(C(C)C)n1[C@@H]1C[C@H]2CC[C@@H](C1)N2CC[C@H](NC(=O)C1CCC(F)(F)CC1)c1ccccc1` [MARAVIROC]: the selectivity ratio in series [1] is over 1e+06.

As for `COc1ccc(C(=O)Nc2ccc(CCC(=O)CCc3ccc(O)c(O)c3)cc2)cc1`, the selectivity ratio in series [1] was under 5.

For `O=C(/C=C/c1ccc(O)c(O)c1)CCc1ccc(NC(=O)c2ccc([N+](=O)[O-])cc2)cc1`, the selectivity ratio in series [1] is under 1.

Turning to `COc1ccc(C(=O)Nc2ccc(CCC(=O)/C=C/c3ccc(OC(C)=O)c(OC(C)=O)c3)cc2)cc1`, the selectivity ratio in series [1] turned out to be 12.

Regarding `CC(=O)Oc1ccc(/C=C/C(=O)CCc2ccc(NC(=O)C3CCCCC3)cc2)cc1OC(C)=O`, the selectivity ratio in series [1] stood at 5.

As for `CC(=O)Oc1ccc(/C=C/C(=O)CCc2ccc(NC(=O)c3ccc(C)cc3)cc2)cc1OC(C)=O`, in series [1], the selectivity ratio was determined as 2.

For `COc1ccc(C(=O)Nc2ccc(CCC(=O)/C=C/c3ccc(O)c(O)c3)cc2)cc1`, the affinity in series [2], expressed as Kd, was 43.2 µM. In addition, the selectivity ratio in series [1] is 7.

`O=C(CCc1ccc(NC(=O)c2ccccc2)cc1)CCc1ccc(O)c(O)c1` came in with a Kd in series [2] of 110 µM. For the same compound, the selectivity ratio in series [1] is 26.

Compound `O=C(/C=C/c1ccc(O)c(O)c1)CCc1ccc(NC(=O)Cc2cccs2)cc1` returned a Kd in series [2] of 61.3 µM. Moreover, the selectivity ratio in series [1] is under 2.

`CC(=O)Oc1ccc(/C=C/C(=O)CCc2ccc(NC(=O)Cc3cccs3)cc2)cc1OC(C)=O`: the selectivity ratio in series [1] was under 1.

`CC(=O)Oc1ccc(CCC(=O)CCc2ccc(NC(=O)c3ccc([N+](=O)[O-])cc3)cc2)cc1OC(C)=O`: the selectivity ratio in series [1] was found to be 15.

Take `CC(=O)Oc1ccc(CCC(=O)CCc2ccc(NC(=O)Cc3cccs3)cc2)cc1OC(C)=O`: the selectivity ratio in series [1] was 17.

For the compound `O=C(CCc1ccc(NC(=O)c2ccc([N+](=O)[O-])cc2)cc1)CCc1ccc(O)c(O)c1`, the selectivity ratio in series [1] turned out to be 6.

Turning to `O=C(/C=C/c1ccc(O)c(O)c1)CCc1ccc(NC(=O)c2ccccc2)cc1`, in series [2], the equilibrium dissociation constant (Kd) was 164 µM. Besides, the selectivity ratio in series [1] is under 1.

On to `O=C(CCc1ccc(NC(=O)Cc2cccs2)cc1)CCc1ccc(O)c(O)c1`, for which the selectivity ratio in series [1] is 8.

For `Cc1ccc(C(=O)Nc2ccc(CCC(=O)/C=C/c3ccc(O)c(O)c3)cc2)cc1`, the selectivity ratio in series [1] was under 1.

As to `O=C(/C=C/c1ccc(O)c(O)c1)CCc1ccc(NC(=O)C2CCCCC2)cc1`, the affinity in series [2], expressed as Kd, was 89.8 µM. For the same compound, in series [1], the selectivity ratio is under 3.

In the case of `CC(=O)Oc1ccc(/C=C/C(=O)CCc2ccc(NC(=O)c3ccc([N+](=O)[O-])cc3)cc2)cc1OC(C)=O`, the selectivity ratio in series [1] was found to be 5.

Regarding `CC(=O)Oc1ccc(/C=C/C(=O)CCc2ccc(NC(=O)c3ccccc3)cc2)cc1OC(C)=O`, in series [1], the selectivity ratio is under 5.

On to `COc1ccc(C(=O)Nc2ccc(CCC(=O)CCc3ccc(OC(C)=O)c(OC(C)=O)c3)cc2)cc1`, for which the selectivity ratio in series [1] was 21.

As to `CC(=O)Oc1ccc(CCC(=O)CCc2ccc(NC(=O)c3ccccc3)cc2)cc1OC(C)=O`, the affinity in series [2], expressed as Kd, was 2.4 µM. In addition, the Activity result in series [3] was “Non-Toxic”. For the same compound, the selectivity ratio in series [1] is 110.

In series [2], `O=C(CCc1ccc(NC(=O)C2CCCCC2)cc1)CCc1ccc(O)c(O)c1` had a Kd of 80.9 µM. In series [1], the selectivity ratio was found to be 10.

In the case of `CC(=O)Oc1ccc(CCC(=O)CCc2ccc(NC(=O)c3ccc(C)cc3)cc2)cc1OC(C)=O`, the selectivity ratio in series [1] stood at 9.

`CC(=O)Oc1ccc(CCC(=O)CCc2ccc(NC(=O)C3CCCCC3)cc2)cc1OC(C)=O`: in series [1], the selectivity ratio came to 14.
